Data taken from US5047411A, “Benzazole compounds and pharmaceutical composition comprising the same” (Fujisawa Pharmaceutical Co., Ltd., priority 1988, dated 1991).
Where a name gives a salt, the structure may show the parent alone.

Test system: stress ulcer
Assay: Test A: Inhibition of stress ulcer
Format: in vivo, male Sprague-Dawley rats
Details: rat, oral, given just before immobilization, ulcer area after 7 hours vs control
Description: Five male Sprague-Dawley rats, aged 7 weeks and weighing about 200 g were used per group for the study on stress ulcer after the fast for 24 hours. Each animal was immobilized in a restrain cage and immersed to a level of the xiphoid in a water bath kept 22° C. Each of the test compound suspended in 0.1% methylcellulose solution was administered orally (5 ml/kg) just before the immobilization. Seven hours later, the animals were sacrificed and their stomachs were removed. The stomach was then fixed with 2% formalin. The area of ulcers was measured for each animal, and percentage of inhibition was calculated by comparing the mean area of ulcers (mm^2) in the test animals with that in the control animals.

Compound	inhibition in vivo at 32 mg/kg [%]
CNc1nc2ccc(Cc3ccccn3)cc2s1 [Test Compound (a), 6-[(2-Pyridyl)methyl]-2-methylaminobenzothiazole]	87.8
CCNc1nc2ccc(CCc3ccccn3)cc2s1 [Test Compound (b), 6-[2-(2-Pyridyl)ethyl]-2-ethylaminobenzothiazole]	83.9
Nc1nc2ccc(CCc3ccccn3)cc2s1 [Test Compound (c), 6-[2-(2-Pyridyl)ethyl]-2-aminobenzothiazole]	88.5
CCNc1nc2ccc(CCc3cn4ccc(C)cc4n3)cc2o1 [Test Compound (d)]	84.6
Nc1nc2ccc(Cc3ccccn3)cc2s1 [Test Compound (e), 6-[(2-Pyridyl)methyl]-2-aminobenzothiazole]	98.2
CNc1nc2ccc(CCc3nc4cc(C)ccn4c3C)cc2o1 [Test Compound (f), 6-[2-(3,7-Dimethylimidazo[1,2-a]pyridin-2-yl)ethyl]-2-methylaminobenzoxazole]	85.1
Cc1ccn2c(C)c(CCc3ccc4nc(N)sc4c3)nc2c1 [Test Compound (g), 6-[2-(3,7-Dimethylimidazo[1,2-a]pyridin-2-yl)ethyl]-2-aminobenzothiazole d ihydrochloride]	85.4
COc1ccn2c(C)c(CCc3ccc4nc(N)oc4c3)nc2c1 [Test Compound (h), 6-[2-(7-Methoxy-3-methylimidazo[1,2-a]pyridin-2-yl)ethyl]-2-aminobenzoxazole]	93.4
CCNc1nc2ccc(CCc3nc4cc(OC)ccn4c3C)cc2o1 [Test Compound (l), 2-Ethylamino-6-[2-(7-methoxy-3-methylimidazo[1,2-a]pyridin-2-yl)ethyl]benzoxazole dihydrochloride]	98.6

Molecular target: T1, H2-receptor (Cavia porcellus, UniProt P47747)
T1 construct: from tissue; host or cells: guinea-pig atrium (isolated atrial strip)
Assay: Test B: H2-receptor antagonism in isolated guinea-pig atrium
Format: cell-based
Details: 0.5 h, dose 1.0 × 10^-6 g/ml, inhibition of histamine-induced increase in beating rate, 30 minutes after dosing
Description: The atrial strip isolated from guinea-pig was suspended under an initial tension 0.3 to 0.6 g in an organ bath containing Tyrode solution at 30° C., aerated 95%O2 -5%CO2 gas. The beating rate and amplitude of contraction of the atrium were recorded by means of a transducer and a polygraph. Histamine ([…]) was added to the bathing fluid and the increase in beating rate after dosing was measured. Addition of test compound was made 30 minutes after washing out histamine. Inhibitory effect of test compound was calculated by comparing histamine-induced increases in beating rate before and 30 minutes after dosing with test compound.

T1 sequence (P47747 whole entry): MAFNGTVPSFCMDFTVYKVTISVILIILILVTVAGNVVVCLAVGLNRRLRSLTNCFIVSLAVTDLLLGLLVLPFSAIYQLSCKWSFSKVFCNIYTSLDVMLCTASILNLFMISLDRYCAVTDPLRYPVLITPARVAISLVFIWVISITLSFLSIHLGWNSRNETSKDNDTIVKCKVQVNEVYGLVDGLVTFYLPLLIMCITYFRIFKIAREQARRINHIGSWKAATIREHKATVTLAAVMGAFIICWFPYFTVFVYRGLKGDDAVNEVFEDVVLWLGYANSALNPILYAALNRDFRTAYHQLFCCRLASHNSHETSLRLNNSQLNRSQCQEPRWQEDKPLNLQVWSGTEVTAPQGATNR

Compound	inhibition at 1 µg/mL [%]
CNc1nc2ccc(CCc3nc4cc(OC)ccn4c3C)cc2o1 [Test Compound (k), 6-[2-(7-Methoxy-3-methylimidazo[1,2-a]pyridin-2-yl)ethyl]-2-methylaminobenzoxazole dihydrochloride]	92.5

Same assay, conditions: 0.5 h, dose 3.2 × 10^-6 g/ml, inhibition of histamine-induced increase in beating rate, 30 minutes after dosing

inhibition at 3.2 µg/mL [%]	Compound
100	COc1ccn2c(C)c(CCc3ccc4nc(N)oc4c3)nc2c1 [Test Compound (h), 6-[2-(7-Methoxy-3-methylimidazo[1,2-a]pyridin-2-yl)ethyl]-2-aminobenzoxazole]
93.1	Cc1ccn2c(C)c(CCc3ccc4nc(N)oc4c3)nc2c1 [Test Compound (i), 6-[2-(3,7-Dimethylimidazo[1,2-a]pyridin-2-yl)ethyl]-2-aminobenzoxazole]
98	CCNc1nc2ccc(CCc3nc4cc(C)ccn4c3C)cc2o1 [Test Compound (j), 6-[2-(3,7-Dimethylimidazo[1,2-a]pyridin-2-yl)ethyl]-2-ethylaminobenzoxazole]
